As a reminder, the IC50 is the concentration that gives 50% inhibition. The term inhibition denotes the share of the control response that was lost under treatment.

The target in one data set is CDK8/Cyclin C (Homo sapiens, UniProt P49336). The data set can be described thus: Inhibition of recombinant full length His tagged human CDK8/Cyclin C expressed in Baculovirus incubated for 60 mins in presence of ATP by ADP-Glo kinase assay. (In general: ADP-Glo turns the ADP formed in a reaction into a luminescent signal.)
CDK8/Cyclin C, sequence (P49336 whole entry): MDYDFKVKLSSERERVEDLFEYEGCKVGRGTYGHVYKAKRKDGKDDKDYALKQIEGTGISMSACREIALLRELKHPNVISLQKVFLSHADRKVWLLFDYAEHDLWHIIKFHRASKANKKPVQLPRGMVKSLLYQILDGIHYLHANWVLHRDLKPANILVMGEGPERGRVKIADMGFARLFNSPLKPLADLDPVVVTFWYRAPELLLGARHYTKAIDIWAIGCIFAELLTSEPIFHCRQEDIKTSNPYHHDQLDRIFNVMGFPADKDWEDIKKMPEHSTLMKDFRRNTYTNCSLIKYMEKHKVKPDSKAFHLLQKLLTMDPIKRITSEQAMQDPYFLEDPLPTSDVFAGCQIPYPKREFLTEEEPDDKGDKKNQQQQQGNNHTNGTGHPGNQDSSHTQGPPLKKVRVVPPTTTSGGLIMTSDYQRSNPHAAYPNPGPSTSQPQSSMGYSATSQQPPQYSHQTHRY
CDK8/Cyclin C, sequence (P24863 whole entry, further chain): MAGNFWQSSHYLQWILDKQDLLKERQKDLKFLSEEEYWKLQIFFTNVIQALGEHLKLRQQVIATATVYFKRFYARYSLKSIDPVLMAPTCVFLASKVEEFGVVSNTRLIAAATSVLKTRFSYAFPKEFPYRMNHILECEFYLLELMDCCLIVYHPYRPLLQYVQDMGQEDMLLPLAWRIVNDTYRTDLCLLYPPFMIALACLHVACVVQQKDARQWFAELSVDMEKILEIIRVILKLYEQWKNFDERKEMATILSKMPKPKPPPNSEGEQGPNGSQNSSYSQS
Data set [1] concerns the target CDK8/Cyclin C (Homo sapiens) (UniProt P49336+P24863). Briefly: Inhibition of recombinant full length His tagged human CDK8/Cyclin C expressed in Baculovirus at 200 nM incubated for 60 mins in presence of ATP by ADP-Glo kinase assay.
Data set [2] can be described thus: Transcriptional activity of AP-1 in R848-stimulated mouse BMDC cells transfected with pAP1-luc assessed as ratio of AP-1 activity at 5 uM treated for 24 hrs followed by R848 stimulation for 4 hrs by luminescence based microplate reader analysis relative to control. Format: functional. The settings on record: time 28 hrs.
A further data set deals with BMDC. Briefly: Anti-inflammatory activity against R848-stimulated mouse BMDC cells assessed as upregulation of IL-10 production at 5 uM treated for 24 hrs followed by R848 stimulation for 12 hrs by ELISA method (reference value: 100 %). Format: functional. Particulars: time 36 hrs. On the technique in general: In an ELISA, binding on a coated surface is turned into a signal by an enzyme label.

The nature of data set [3]: Stability of compound in human liver microsome assessed as intrinsic clearance by HPLC analysis. Format: ADME. The settings on record: liver microsomes, read-out: CLH. In general terms: Liver microsomes are vesicles of endoplasmic reticulum, rich in cytochrome P450 enzymes.

With `O=c1cc(-c2ccccc2)oc2cc(-c3ccc(C(F)(F)F)cc3)cc(O)c12`, at CDK8/Cyclin C, the IC50 worked out at 2110 nM. Further, the inhibition in data set [1] stood at 28%. For the same molecule, the Ratio in data set [2] is given as 1.4.
On to `Nc1ncc(C(=O)Nc2ccccc2)cc1-c1ccc(C(=O)N2CCNCC2)cc1`, for which, on CDK8/Cyclin C, the IC50 came out at 260 nM. For the same molecule, the Activity with BMDC is given as 56%. Further, the inhibition in data set [1] is 44%. In addition, the Ratio in data set [2] was determined as 1.7.
As for `O=C(Nc1cccc(C(F)(F)F)c1)c1cncc(-c2ccc(C(=O)N3CCNCC3)cc2)c1`, the IC50 on CDK8/Cyclin C stood at 1140 nM. The Activity with BMDC stood at 42%. In addition, in data set [1], the inhibition was 24%. In data set [2], the Ratio was 1.41.
On the same counts, the results for `COc1ccc(NC(=O)c2cncc(-c3ccc(C(=O)N4CCNCC4)cc3)c2)cc1` are 81 nM, 74%, 77% and 1.7.
In the case of `CCc1ccc(NC(=O)c2cncc(-c3ccc(C(=O)N4CCNCC4)cc3)c2)cc1`, the IC50 on CDK8/Cyclin C is 96 nM. Also, the Activity with BMDC is 40%. The inhibition in data set [1] stood at 71%. In data set [2], the Ratio stood at 1.9.
`O=c1cc(-c2ccccc2)oc2cc(-c3ccc(N4CCNCC4)cc3)cc(O)c12`: the IC50 on CDK8/Cyclin C stood at 190 nM. Besides, the Activity with BMDC amounted to 80%. In data set [1], the inhibition came to 53%. For the same molecule, the Ratio in data set [2] worked out at 1.5. Besides, in data set [3], the microsomal CLint is 13.7 µL/min/mg.
Take `COc1c(O)cc(O)c2c(=O)cc(-c3ccccc3)oc12` [WOGONIN]: the 50% inhibitory concentration (IC50) on CDK8/Cyclin C amounted to 5900 nM. For the same molecule, the Activity in the data set on BMDC is recorded as 65%. In addition, the Ratio in data set [2] is reported as 1.4. Also, the microsomal CLint in data set [3] stood at 11.3 µL/min/mg.
For the molecule `Cc1cccc(NC(=O)c2cncc(-c3ccc(C(=O)N4CCNCC4)cc3)c2)c1`, the IC50 on CDK8/Cyclin C was 75 nM. The Activity in the data set with BMDC came out at 62%. The inhibition in data set [1] was 76%. The Ratio in data set [2] is given as 1.6.
For `COc1cc(OC)c(-c2cc(O)c3c(=O)cc(-c4ccccc4)oc3c2)c(OC)c1`, the IC50 on CDK8/Cyclin C was determined as 205 nM. For the same molecule, the inhibition in data set [1] amounted to 56%.
Turning to `Nc1ccc(-c2cc(O)c3c(=O)cc(-c4ccccc4)oc3c2)cc1`, the IC50 on CDK8/Cyclin C is 112 nM. Further, the Activity with BMDC is listed as 21%. The inhibition in data set [1] amounted to 64%. Besides, the Ratio in data set [2] turned out to be 2.6.
With `O=C(c1ccc(-c2cc(O)c3c(=O)cc(-c4ccccc4)oc3c2)cc1)N1CCNCC1`, the IC50 at CDK8/Cyclin C was 72 nM. Besides, the Activity with BMDC worked out at 43%. Moreover, in data set [1], the inhibition is 75%. Besides, the Ratio in data set [2] stood at 2.4. The microsomal CLint in data set [3] was determined as 12.9 µL/min/mg.
`Nc1ncc(-c2ccc(C(=O)N3CCNCC3)cc2)cc1C(=O)Nc1ccccc1`: the IC50 on CDK8/Cyclin C is 134 nM. In the data set with BMDC, the Activity came to 61%. In addition, the inhibition in data set [1] is 62%. Further, the Ratio in data set [2] turned out to be 2.7.
Turning to `O=c1cc(-c2ccccc2)oc2cc(-c3ccc(CN4CCNCC4)cc3)cc(O)c12`, at CDK8/Cyclin C, the IC50 came to 144 nM. Moreover, the Activity in the data set with BMDC was 33%. Further, the inhibition in data set [1] was 69%. In addition, the Ratio in data set [2] was 1.9. The microsomal CLint in data set [3] came out at 15.9 µL/min/mg.
As to `CN1CCN(c2ccc(-c3cc(O)c4c(=O)cc(-c5ccccc5)oc4c3)cc2)CC1`, the Activity in the data set on BMDC amounted to 53%. In addition, the inhibition in data set [1] is 42%. Also, the Ratio in data set [2] came to 1.4.
On the same counts, the results for `CN1CCN(Cc2ccc(-c3cc(O)c4c(=O)cc(-c5ccccc5)oc4c3)cc2)CC1` are 36%, 25% and 1.1.
Regarding `O=C(Nc1ccccc1)c1cc(-c2ccc(C(=O)N3CCNCC3)cc2)ccc1O`, the IC50 on CDK8/Cyclin C was found to be 210 nM. The Activity in the data set on BMDC is given as 40%. The inhibition in data set [1] was 54%. Moreover, in data set [2], the Ratio stood at 1.2.
In the case of `CN(C)c1ccc(-c2cc(O)c3c(=O)cc(-c4ccccc4)oc3c2)cc1`, the half-inhibitory concentration (IC50) at CDK8/Cyclin C was 177 nM. Moreover, in data set [1], the inhibition worked out at 62%. In addition, in data set [2], the Ratio worked out at 1.4.
For the molecule `COc1cccc(NC(=O)c2cncc(-c3ccc(C(=O)N4CCNCC4)cc3)c2)c1`, on CDK8/Cyclin C, the IC50 was found to be 65 nM. Moreover, the Activity in the data set on BMDC was determined as 65%. Further, the inhibition in data set [1] is 80%. Moreover, the Ratio in data set [2] amounted to 2. In addition, the microsomal CLint in data set [3] was determined as 7 µL/min/mg.
Take `Nc1ccccc1NC(=O)c1cncc(-c2ccc(C(=O)N3CCNCC3)cc2)c1`: the IC50 on CDK8/Cyclin C was found to be 947 nM. The Activity in the data set with BMDC is recorded as 24%. Moreover, the inhibition in data set [1] amounted to 27%. For the same molecule, the Ratio in data set [2] amounted to 1.63.
For the molecule `O=C(Nc1ccccc1)c1cncc(-c2ccc(C(=O)N3CCNCC3)cc2)c1`, the IC50 at CDK8/Cyclin C is 80 nM. The Activity in the data set on BMDC worked out at 76%. Moreover, in data set [1], the inhibition was determined as 79%. Further, the Ratio in data set [2] is on record as 2.8. Besides, the microsomal CLint in data set [3] stood at 7.3 µL/min/mg.
On to `CC1CCc2nc(N)c(C#N)c(-c3cccnc3)c2C1` (configuration not stated), for which, on CDK8/Cyclin C, the IC50 stood at 211 nM. The Activity in the data set with BMDC is 66%. In addition, the Ratio in data set [2] worked out at 2.5.
Turning to `Cc1ccc(-c2cc(O)c3c(=O)cc(-c4ccccc4)oc3c2)cc1`, at CDK8/Cyclin C, the IC50 is 155 nM. In the data set on BMDC, the Activity stood at 83%. The inhibition in data set [1] turned out to be 62%. Also, the Ratio in data set [2] is on record as 2.6.
As to `O=C(Nc1ccccc1)c1cccc(-c2ccc(C(=O)N3CCNCC3)cc2)c1`, the IC50 on CDK8/Cyclin C was 162 nM. Further, the inhibition in data set [1] turned out to be 67%. Moreover, the Ratio in data set [2] was 1.7.
As for `CC(=O)Nc1ccc(NC(=O)c2cncc(-c3ccc(C(=O)N4CCNCC4)cc3)c2)cc1`, the IC50 on CDK8/Cyclin C was found to be 1050 nM. In addition, the Activity with BMDC is given as 37%. Besides, the inhibition in data set [1] was 35%. In addition, the Ratio in data set [2] came to 1.1.
Consider `Cc1cc(C)c(NC(=O)c2cc(O)cc(-c3ccc(C(=O)N4CCNCC4)cc3)c2)c(C)c1`, for which the Activity with BMDC is recorded as 59%. Further, the inhibition in data set [1] is 38%.
On the same counts, the results for `O=C(NCCc1ccccc1)c1cncc(-c2ccc(C(=O)N3CCNCC3)cc2)c1` are 62% and 52%.
For the molecule `CC(=O)Nc1cccc(NC(=O)c2cncc(-c3ccc(C(=O)N4CCNCC4)cc3)c2)c1`, at CDK8/Cyclin C, the IC50 was 134 nM. The Activity in the data set with BMDC is 78%. The inhibition in data set [1] was determined as 65%.
Turning to `O=c1cc(-c2ccccc2)oc2cc(-c3ccccc3)cc(O)c12`, the IC50 at CDK8/Cyclin C was determined as 234 nM. Moreover, in data set [1], the inhibition worked out at 46%. The Ratio in data set [2] stood at 1.5. For the same molecule, the microsomal CLint in data set [3] was determined as 10.9 µL/min/mg.
As to `O=c1cc(-c2ccccc2)oc2cc(-c3cncnc3)cc(O)c12`, the IC50 at CDK8/Cyclin C was 548 nM. In addition, the inhibition in data set [1] came to 35%.
For `O=C(Nc1ccc(Cl)cc1)c1cncc(-c2ccc(C(=O)N3CCNCC3)cc2)c1`, at CDK8/Cyclin C, the half-maximal inhibitory concentration (IC50) is 1470 nM. Besides, the Activity in the data set on BMDC turned out to be 33%. Moreover, the inhibition in data set [1] was 20%. For the same molecule, the Ratio in data set [2] amounted to 1.55.
In the case of `Nc1ccc(NC(=O)c2cncc(-c3ccc(C(=O)N4CCNCC4)cc3)c2)cc1`, the IC50 on CDK8/Cyclin C amounted to 3650 nM. The Activity in the data set on BMDC came to 30%. Further, in data set [1], the inhibition is 34%. Besides, the Ratio in data set [2] is listed as 1.72.
On to `Cc1ccc(NC(=O)c2cncc(-c3ccc(C(=O)N4CCNCC4)cc3)c2)cc1`, for which the Activity in the data set with BMDC stood at 62%. Also, the inhibition in data set [1] came out at 77%.
On the same counts, the results for `Cc1cccc(NC(=O)c2cc(O)cc(-c3ccc(C(=O)N4CCNCC4)cc3)c2)c1` are 76% and 20%.
On the same counts, the results for `CC(=O)Nc1ccccc1NC(=O)c1cncc(-c2ccc(C(=O)N3CCNCC3)cc2)c1` are 29% and 47%.
Consider `O=C(Nc1ccccc1)c1ccc(O)c(-c2ccc(C(=O)N3CCNCC3)cc2)c1`, for which, on CDK8/Cyclin C, the concentration for half-maximal inhibition (IC50) is 214 nM. For the same molecule, in the data set with BMDC, the Activity is recorded as 26%. Besides, the inhibition in data set [1] was 57%. Besides, in data set [2], the Ratio worked out at 1.2.
As for `O=C(Nc1cccc(OC(F)(F)F)c1)c1cncc(-c2ccc(C(=O)N3CCNCC3)cc2)c1`, the Activity in the data set on BMDC turned out to be 48%. Besides, the inhibition in data set [1] amounted to 44%.
The matching figures for `Nc1cccc(NC(=O)c2cncc(-c3ccc(C(=O)N4CCNCC4)cc3)c2)c1`: 60% and 59%.
The matching figures for `CC(C)(C)c1ccc(NC(=O)c2cncc(-c3ccc(C(=O)N4CCNCC4)cc3)c2)cc1`: 63% and 54%.
The matching figures for `O=C(Nc1ccccc1F)c1cc(O)cc(-c2ccc(C(=O)N3CCNCC3)cc2)c1`: 42% and 19%.
With `CCc1cccc(NC(=O)c2cncc(-c3ccc(C(=O)N4CCNCC4)cc3)c2)c1`, the IC50 at CDK8/Cyclin C was determined as 104 nM. For the same molecule, in the data set on BMDC, the Activity is recorded as 34%. For the same molecule, the inhibition in data set [1] came to 73%. Moreover, the Ratio in data set [2] was determined as 1.7.
For the molecule `Nc1ccc(NC(=O)c2cc(O)cc(-c3ccc(C(=O)N4CCNCC4)cc3)c2)cc1`, the Activity with BMDC came out at 20%. Further, in data set [1], the inhibition amounted to 31%.
The matching figures for `O=C(Nc1ccc(OC(F)(F)F)cc1)c1cc(O)cc(-c2ccc(C(=O)N3CCNCC3)cc2)c1`: 88% and 5%.
Take `O=c1cc(-c2ccccc2)oc2cc(-c3ccncc3)cc(O)c12`: the Activity in the data set with BMDC is recorded as 73%. The inhibition in data set [1] is 24%. Besides, the Ratio in data set [2] is 1.2.
As to `O=C(NCc1ccccc1)c1cncc(-c2ccc(C(=O)N3CCNCC3)cc2)c1`, the Activity in the data set with BMDC amounted to 72%. Moreover, the inhibition in data set [1] worked out at 62%.
Consider `Cc1noc(C)c1-c1cc(O)c2c(=O)cc(-c3ccccc3)oc2c1`, for which the Activity with BMDC is 30%. In addition, the inhibition in data set [1] was 12%.

Values taken from ChEMBL document CHEMBL5154907, “Discovery and Anti-Inflammatory Activity Evaluation of a Novel CDK8 Inhibitor through Upregulation of IL-10 for the Treatment of Inflammatory Bowel Disease In Vivo” (J Med Chem, 2022).
